# Test results as given in patent publication US20170112748A1, “N-ACYLPEPTIDE DERIVATIVES AND THEIR USES” (NeoStrata Company, Inc., priority 2012, published 2017).
# Key:
# Assay type in all cases: in vivo, human
# [1] = summary of test results in volunteer subjects, efficacy grades; conditions: efficacy grade
# Text: Subject 1. Person had multiple red and itchy inflammation, dermatitis, or eczema lesions, which were resistant to conventional treatments including corticosteroids. Subject 2. Person had small red and itchy lesions which were resistant to topical corticosteroid treatment. Subject 3. Person had multiple red and itchy inflammation, dermatitis, or eczema lesions over the body for many years, which were resistant to conventional treatments including corticosteroids. Subject 4. Person had red and itchy inflammation, dermatitis, or eczema lesions for many years, which were resistant to topical corticosteroid treatment. Subject 5. Person had early stage of aging related skin changes on both forearms as indicated by age spots and wrinkled skin caused by solar damage. Subject 6. Person had age spots, keratoses and wrinkles on both forearms caused by intrinsic and extrinsic aging. Subject 7. Person had age spots, and wrinkles on both forearms caused by intrinsic and extrinsic aging. Subject 8. Person had osteoarthritis of both knees with inflammation and pain for more than 4 years, and had only mild transitory relief from conventional treatments. Subject 9. Person had sensitive skin with inflammatory lesions on the body. Subject 12. Person had dermatitis and inflammatory lesions on the left palm. Subject 14. Person had multiple age spots including lentigines and keratosis on their face. Subject 15. Person had psorisis Subject 16. Person had sensitive skin and eczema for more than 40 years
# In another embodiment, the volunteer subject topically applied the test compositions containing N-acylpeptide derivatives of the present invention on involved skin or lesions once or twice daily for several weeks or until the involved lesions completely cleared and clinically changed to normal skin. As a control study, the subject also topically applied a vehicle control composition on the involved skin or lesions twice daily for the same period.
# In yet another embodiment, the volunteer subject topically applied once or twice daily the test compositions containing N-acylpeptide derivatives of the present invention on the skin site above arthritic joints or painful muscles to provide therapeutic effects for the systemic disorders via topical administration.
# In yet another embodiment, the volunteer subject injected intra-articularly into a knee joint a test composition containing a N-acylpeptide derivative of the present invention to improve and reduce arthritic inflammation and pain of the joint.
# Some test results are summarized as follows.
# DK: Disturbed keratinization AG: Aging related changes of skin, nail and hair DI: Deranged immune disorders and inflammation ND: Nerve disorders CA: Tumors and/or cancers
# [2] = topical treatment of chronic dermatoses with scaly skin and itch, clinical evaluation; conditions: Example 11: subject
# Text: The subject topically applied twice daily a pentapeptide derivative, N-Ac-L-Ala-L-Leu-L-Lys-L-His-L-Arg-NH2 (SEQ ID NO: 51) 0.2% (w/v) in WEP442, pH 3.4, as prepared in Example 2. […] The treated skin had 80-90% improvement as judged by clinical evaluation.
# [3] = skin plump / skin thickness test after topical application, caliper measurement
# Experimental: In one of the studies related to skin changes associated with aging, skin thickness was measured by micrometer calipers as follows.
# The skin was grasped with a 2×6 cm metal hinge: the internal faces of which were coated with emery cloth to prevent slippage, and manually squeezed to threshold subject discomfort. Combined thickness of two whole-skin layers including thickness of the two hinge leaves was measured with micrometer calipers. Thickness of the two hinge leaves was subtracted to determine the actual thickness of two whole-skin layers. Triplicate measurements on treated sites were done and an average number was used for calculation of the skin thickness.
# In other studies, test sites of skin 17 mm in diameter were used, the circular sites were marked with permanent ink. Intervening control sites were also 17 mm in diameter. Thickness of skin of all sites was measured directly by means of an electronic digital caliper. In this instance the jaws of the caliper were opened to 17 mm, applied with pressure to the skin sites and then closed to firm tightness. Thickness of skin was then read off the screen of the calipers. Measurements of all sites were made in triplicates. […]
# [4] = topical treatment of bilateral inter-metacarpal atrophy of hands; conditions: Example 23: subject, 1% (w/v) in WEP442 twice daily after the first course
# Text: A subject had bilateral inter-metacarpal atrophy of both hands with certain restrictions of hand movements. The subject topically applied two to three times daily N-Ac-L-Tyr-L-Tyr-L-Tyr-OEt, 2% (w/v) in EP73 on the back of their left hand, and vehicle control EP73 on the back of their right hand for three weeks.
# The subject now, topically applied twice daily N-Ac-L-Tyr-L-Tyr-L-Tyr-NH2, 1% (w/v) in WEP442 on the back of their left hand as a mantenace therapy.
# [5] = topical treatment of plaque psoriasis, clinical evaluation; conditions: Example 13: subject, 0.2% (w/w) in cream twice daily, 3 weeks
# Text: A subject, having plaque psoriasis, topically applied twice daily N-Ac-L-Tyr-L-Tyr-L-Tyr-NH2 0.2% (w/w) in cream to plaque lesions for 3 weeks. The treated lesions started to improve after a few days of topical application. […] The treated lesions had 40-50% improvement as judged by clinical evaluation.
# [6] = topical treatment of chronic inflammation, erythema, eczema with thick scales and itch, clinical evaluation; conditions: Example 10: subject, -NH2 0.3% and -OEt 0.5% (w/v) in WEP442
# Text: The involved skin was divided into two lesions for testing. The subject topically applied twice daily to one lesion, N-Ac-L-Tyr-L-Tyr-L-Tyr-NH2 0.3% (w/v) in WEP442, pH 5.9 solution composition, prepared according to Example 2, and to second lesion, N-Ac-L-Tyr-L-Tyr-L-Tyr-OEt 0.5% (w/v) in WEP 442, pH 6.0, prepared according to Example 2. […] The treated skin had 90-95% improvement as judged by clinical evaluation.
# [7] = appetite for food after topical application on forehead; conditions: Example 12: subject, 0.3% (w/v) in WEP442 once on forehead one hour before dinner
# Experimental: A subject, having normal and regular eating habit, topically applied once N-Ac-L-Tyr-L-Tyr-L-Tyr-NH2, 0.3% (w/v) in WEP442, pH 5.9 prepared according to Example 2 on their forehead one hour before the regular dinner time. After about 50-60 minutes of the topical application, the subject strated to feel loss of appetite for food.
# [8] = anxiety, stress and mood disorders after topical application on forehead; conditions: Example 16: subject, 0.2% in WEP442 on forehead, after two hours
# Text: A subject had mild forms of anxiety, stress and mood disorders which provoked restlessness, lack of concentration, and mild depression. […] The subject then topically applied N-Ac-L-Val-L-Tyr-L-Tyr-NH2, 0.2% in WEP442 on their forehead.
Substance,"AG: Aging related changes of skin, nail and hair [1]",DI: Deranged immune disorders and inflammation [1],DK: Disturbed keratinization [1],ND: Nerve disorders [1],also measured
N-Ac-L-Ala-L-Leu-L-Lys-L-His-L-Arg-NH2 (Ac-ALKHR-NH2),3+ (3+: 75% Efficacy),4+ (4+: 95-100% Efficacy),3+ (3+: 75% Efficacy),3+ (3+: 75% Efficacy),"itch ([2]; 0.2% (w/v) in WEP442 pH 3.4 topical): stopped within a few minutes; improvement as judged by clinical evaluation ([2]; right leg, 0.2% (w/v) in WEP442 pH 3.4 twice daily, 2 weeks): 80-90%"
N-Ac-L-Arg-L-Arg-L-Arg-NH2,2+ (2+: 50% Efficacy),2+ (2+: 50% Efficacy),2+ (2+: 50% Efficacy),2+ (2+: 50% Efficacy),–
N-Ac-L-Ser-L-Ser-L-Ser-NH2,2+ (2+: 50% Efficacy),2+ (2+: 50% Efficacy),2+ (2+: 50% Efficacy),2+ (2+: 50% Efficacy),–
N-Ac-L-Tyr-L-Tyr-L-Tyr-NH2,4+ (4+: 95-100% Efficacy),4+ (4+: 95-100% Efficacy),4+ (4+: 95-100% Efficacy),4+ (4+: 95-100% Efficacy),"increase in skin thickness ([3]; Example 8: subject, severe photodamage, right wrist distal, 0.5% (w/v) in WEP721 three times daily, 7 days): 5-10%; increased skin thickness ([3]; Example 20: subject, photoaging forearms, 0.8% (w/v) in WEP442 three times daily, four weeks): ~15%; increased skin thickness ([3]; Example 20: subject, photoaging forearms, 1% (w/v) in WEP442 three times daily, four weeks): ~28%; increased skin thickness ([3]; Example 21: subject, sun damaged forearms, 1% (w/v) in WEP442 three times daily, one week): ~24%; inter-metacarpal atrophy of left hand, maintenance therapy [4]: continued to improve with no signs of inter-metacarpal atrophy; improvement of treated lesions as judged by clinical evaluation [5]: 40-50%; itch [6]: stopped within a few minutes; amount of food eaten at dinner [7]: only half the amount of food they usually would consume; time after topical application until loss of appetite for food was felt [7]: 50 to 60 min"
N-Ac-L-Val-L-Tyr-L-Tyr-NH2,3+ (3+: 75% Efficacy),2+ (2+: 50% Efficacy),2+ (2+: 50% Efficacy),4+ (4+: 95-100% Efficacy),"effect on anxiety, stress and mood disorders [8]: anxiety, stress and mood disorders started to disappear"
N-Ac-L-Val-L-Val-L-Ala-NH2,2+ (2+: 50% Efficacy),2+ (2+: 50% Efficacy),2+ (2+: 50% Efficacy),3+ (3+: 75% Efficacy),–
N-Bz-L-Ala-L-Leu-L-Lys-L-His-L-Arg-NH2 (ALKHR; HELM PEPTIDE1{[O=C(c1ccccc1)[*:2]].A.L.K.H.R.[am]}$$$$V2.0; SMILES CC(C)C[C@H](NC(=O)[C@H](C)NC(=O)c1ccccc1)C(=O)N[C@@H](CCCCN)C(=O)N[C@@H](Cc1c[nH]cn1)C(=O)N[C@@H](CCCNC(=N)N)C(N)=O),4+ (4+: 95-100% Efficacy),3+ (3+: 75% Efficacy),3+ (3+: 75% Efficacy),2+ (2+: 50% Efficacy),–
N-Pr-L-Ala-L-Leu-L-Lys-L-His-L-Arg-NH2 (ALKHR; HELM PEPTIDE1{[CCC(=O)[*:2]].A.L.K.H.R.[am]}$$$$V2.0; SMILES CCC(=O)N[C@@H](C)C(=O)N[C@@H](CC(C)C)C(=O)N[C@@H](CCCCN)C(=O)N[C@@H](Cc1c[nH]cn1)C(=O)N[C@@H](CCCNC(=N)N)C(N)=O),2+ (2+: 50% Efficacy),2+ (2+: 50% Efficacy),2+ (2+: 50% Efficacy),2+ (2+: 50% Efficacy),–
